Measurements taken from patent US20130338106A1, “COMPOUNDS INHIBITING LEUCINE-RICH REPEAT KINASE ENZYME ACTIVITY” (priority 2011, published 2013).

Experiments:
Type in all cases: biochemical
FLT3 = target: T1, FLT3 (Homo sapiens, UniProt P36888); experiment: ProfilerPro Kinase Selectivity, FLT3; conditions: tested at 10 uM, read-out: percent inhibition of the kinase activity
T1 construct: purchased Caliper LifeSciences
Experimental: (§1) Kinome selectivity profiling was performed using two example compounds according to the manufacturer's instructions using Caliper LifeSciences' ProfilerPro Kinase Selectivity Assay Kits. Compounds prepared in Examples 1 and 7 were tested at 10 uM and data were recorded using the Caliper LabChip® EZ Reader™. Each compounds' percent inhibition of the kinase activity measured in this manner is reported in the following lists.

PRKX = target: T2, PRKX (Homo sapiens, UniProt P51817); experiment: ProfilerPro Kinase Selectivity, PRKX; conditions: tested at 10 uM, read-out: percent inhibition of the kinase activity
T2 construct: purchased Caliper LifeSciences
Experimental: as §1

FGFR2 = target: T3, FGFR2 (Homo sapiens, UniProt P21802); experiment: ProfilerPro Kinase Selectivity, FGFR2; conditions: tested at 10 uM, read-out: percent inhibition of the kinase activity
T3 construct: purchased Caliper LifeSciences
Experimental: as §1

MET M1250T = target: T4, MET M1250T (Homo sapiens, UniProt P08581, M1250T); experiment: ProfilerPro Kinase Selectivity, MET M1250T; conditions: tested at 10 uM, read-out: percent inhibition of the kinase activity
T4 construct: purchased Caliper LifeSciences
Experimental: as §1

[1] = target: T5, LRRK2 G2019S mutant kinase (Homo sapiens, UniProt Q5S007, G2019S); experiment: LRRK2 G2019S LanthaScreen TR-FRET kinase assay; conditions: LRRK2 G2019S GST-tagged protein, 100 μM ATP, LRRKtide substrate; read-out: IC50 (potency)
T5 construct: GST; purchased Invitrogen PV4882
T5 sequence (Q5S007 whole entry G2019S): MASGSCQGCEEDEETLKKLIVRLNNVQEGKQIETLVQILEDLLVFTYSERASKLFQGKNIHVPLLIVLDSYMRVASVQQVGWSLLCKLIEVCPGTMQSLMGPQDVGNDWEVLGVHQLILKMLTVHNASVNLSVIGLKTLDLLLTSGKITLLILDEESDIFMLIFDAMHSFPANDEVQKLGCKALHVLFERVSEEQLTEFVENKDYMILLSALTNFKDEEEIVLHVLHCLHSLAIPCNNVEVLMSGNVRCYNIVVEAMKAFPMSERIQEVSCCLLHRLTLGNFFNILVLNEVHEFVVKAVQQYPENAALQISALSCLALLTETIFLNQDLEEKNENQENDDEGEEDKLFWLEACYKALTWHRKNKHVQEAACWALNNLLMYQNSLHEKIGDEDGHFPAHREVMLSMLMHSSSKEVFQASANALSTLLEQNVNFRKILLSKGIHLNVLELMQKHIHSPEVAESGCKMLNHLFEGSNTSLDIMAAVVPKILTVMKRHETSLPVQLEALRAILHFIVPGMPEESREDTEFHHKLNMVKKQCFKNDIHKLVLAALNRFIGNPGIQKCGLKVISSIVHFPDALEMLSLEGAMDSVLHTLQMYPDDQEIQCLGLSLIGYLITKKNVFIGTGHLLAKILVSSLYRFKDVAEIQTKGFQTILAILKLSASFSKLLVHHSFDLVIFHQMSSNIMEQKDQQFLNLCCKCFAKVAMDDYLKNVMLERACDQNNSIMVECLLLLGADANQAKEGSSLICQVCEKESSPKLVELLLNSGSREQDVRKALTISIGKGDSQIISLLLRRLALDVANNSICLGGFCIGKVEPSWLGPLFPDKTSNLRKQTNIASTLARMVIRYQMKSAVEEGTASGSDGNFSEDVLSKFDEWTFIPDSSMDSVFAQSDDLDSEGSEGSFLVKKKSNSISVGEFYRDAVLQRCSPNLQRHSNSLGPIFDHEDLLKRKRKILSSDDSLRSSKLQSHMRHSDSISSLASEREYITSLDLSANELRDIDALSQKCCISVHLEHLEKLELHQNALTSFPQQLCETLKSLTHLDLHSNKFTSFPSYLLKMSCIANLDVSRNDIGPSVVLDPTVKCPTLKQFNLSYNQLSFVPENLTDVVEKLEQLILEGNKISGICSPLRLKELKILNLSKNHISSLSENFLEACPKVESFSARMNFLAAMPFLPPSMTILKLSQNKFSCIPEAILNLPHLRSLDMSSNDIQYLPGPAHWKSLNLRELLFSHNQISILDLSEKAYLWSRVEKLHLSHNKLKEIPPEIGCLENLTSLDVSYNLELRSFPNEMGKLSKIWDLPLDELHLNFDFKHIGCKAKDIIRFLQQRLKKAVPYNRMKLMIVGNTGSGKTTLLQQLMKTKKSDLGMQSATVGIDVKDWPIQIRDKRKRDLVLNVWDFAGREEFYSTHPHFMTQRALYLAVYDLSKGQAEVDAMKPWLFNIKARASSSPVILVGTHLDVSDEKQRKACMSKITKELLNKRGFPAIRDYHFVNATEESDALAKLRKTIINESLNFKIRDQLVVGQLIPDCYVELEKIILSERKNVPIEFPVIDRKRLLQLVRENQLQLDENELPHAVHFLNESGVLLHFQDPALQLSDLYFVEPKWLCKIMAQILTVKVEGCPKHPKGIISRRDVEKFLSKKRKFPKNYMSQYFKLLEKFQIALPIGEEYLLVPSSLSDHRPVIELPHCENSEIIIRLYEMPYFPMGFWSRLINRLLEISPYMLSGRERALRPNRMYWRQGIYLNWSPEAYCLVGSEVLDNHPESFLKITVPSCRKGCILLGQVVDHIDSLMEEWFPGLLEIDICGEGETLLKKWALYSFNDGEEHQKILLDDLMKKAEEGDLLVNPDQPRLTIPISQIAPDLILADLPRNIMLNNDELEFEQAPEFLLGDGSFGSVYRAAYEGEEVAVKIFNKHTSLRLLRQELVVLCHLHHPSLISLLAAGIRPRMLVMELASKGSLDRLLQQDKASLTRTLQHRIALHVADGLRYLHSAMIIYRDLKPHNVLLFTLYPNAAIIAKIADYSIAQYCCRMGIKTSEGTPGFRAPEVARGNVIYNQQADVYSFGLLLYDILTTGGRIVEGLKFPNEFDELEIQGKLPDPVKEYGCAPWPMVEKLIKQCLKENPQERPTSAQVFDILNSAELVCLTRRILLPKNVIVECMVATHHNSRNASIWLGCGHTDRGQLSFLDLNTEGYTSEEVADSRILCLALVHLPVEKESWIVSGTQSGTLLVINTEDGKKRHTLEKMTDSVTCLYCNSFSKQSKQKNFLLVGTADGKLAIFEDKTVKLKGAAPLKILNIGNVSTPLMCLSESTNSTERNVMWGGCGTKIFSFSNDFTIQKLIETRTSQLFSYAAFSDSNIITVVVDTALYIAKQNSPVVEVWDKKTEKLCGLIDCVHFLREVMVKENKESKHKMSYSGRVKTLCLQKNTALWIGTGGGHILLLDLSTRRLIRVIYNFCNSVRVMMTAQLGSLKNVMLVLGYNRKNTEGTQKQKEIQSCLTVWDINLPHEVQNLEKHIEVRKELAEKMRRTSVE
Outline: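 GST-tagged enzyme with 75 nM fluorescein-ERM (LRRKtide) substrate, 100 μM ATP, 2 mM DTT, 1% DMSO final; 1 h at room temperature. Stopped with EDTA and Tb-anti-pERM antibody, 30 min, then TR-FRET read (ex 340, em 520/495 nm); IC50 and maximal inhibition derived.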

PKCI = target: T6, PKCI (Homo sapiens, UniProt P41743); experiment: ProfilerPro Kinase Selectivity, PKCI; conditions: tested at 10 uM, read-out: percent inhibition of the kinase activity
T6 construct: purchased Caliper LifeSciences
Experimental: as §1

PRKCE = target: T7, PRKCE (Homo sapiens, UniProt Q02156); experiment: ProfilerPro Kinase Selectivity, PRKCE; conditions: tested at 10 uM, read-out: percent inhibition of the kinase activity
T7 construct: purchased Caliper LifeSciences
Experimental: as §1

AMPKA1 = target: T8, AMPKA1 (Homo sapiens, UniProt Q13131); experiment: ProfilerPro Kinase Selectivity, AMPKA1; conditions: tested at 10 uM, read-out: percent inhibition of the kinase activity
T8 construct: purchased Caliper LifeSciences
Experimental: as §1

LYN = target: T9, LYN (Homo sapiens, UniProt P07948); experiment: ProfilerPro Kinase Selectivity, LYN; conditions: tested at 10 uM, read-out: percent inhibition of the kinase activity
T9 construct: purchased Caliper LifeSciences
Experimental: as §1

CAMK2G = target: T10, CAMK2G (Homo sapiens, UniProt Q13555); experiment: ProfilerPro Kinase Selectivity, CAMK2G; conditions: tested at 10 uM, read-out: percent inhibition of the kinase activity
T10 construct: purchased Caliper LifeSciences
Experimental: as §1

RET Y791F = target: T11, RET Y791F (Homo sapiens, UniProt P07949, Y791F); experiment: ProfilerPro Kinase Selectivity, RET Y791F; conditions: tested at 10 uM, read-out: percent inhibition of the kinase activity
T11 construct: purchased Caliper LifeSciences
Experimental: as §1

PDGFRA D842V = target: T12, PDGFRA D842V (Homo sapiens, UniProt P16234, D842V); experiment: ProfilerPro Kinase Selectivity, PDGFRA D842V; conditions: tested at 10 uM, read-out: percent inhibition of the kinase activity
T12 construct: purchased Caliper LifeSciences
Experimental: as §1

RSK2 = target: T13, RSK2 (Homo sapiens, UniProt P51812); experiment: ProfilerPro Kinase Selectivity, RSK2; conditions: tested at 10 uM, read-out: percent inhibition of the kinase activity
T13 construct: purchased Caliper LifeSciences
Experimental: as §1

PIM1 = target: T14, PIM1 (Homo sapiens, UniProt P11309); experiment: ProfilerPro Kinase Selectivity, PIM1; conditions: tested at 10 uM, read-out: percent inhibition of the kinase activity
T14 construct: purchased Caliper LifeSciences
Experimental: as §1

FGFR3 K650E = target: T15, FGFR3 K650E (Homo sapiens, UniProt P22607, K650E); experiment: ProfilerPro Kinase Selectivity, FGFR3 K650E; conditions: tested at 10 uM, read-out: percent inhibition of the kinase activity
T15 construct: purchased Caliper LifeSciences
Experimental: as §1

AXL = target: T16, AXL (Homo sapiens, UniProt P30530); experiment: ProfilerPro Kinase Selectivity, AXL; conditions: tested at 10 uM, read-out: percent inhibition of the kinase activity
T16 construct: purchased Caliper LifeSciences
T16 sequence (P30530 26-894, species assumed): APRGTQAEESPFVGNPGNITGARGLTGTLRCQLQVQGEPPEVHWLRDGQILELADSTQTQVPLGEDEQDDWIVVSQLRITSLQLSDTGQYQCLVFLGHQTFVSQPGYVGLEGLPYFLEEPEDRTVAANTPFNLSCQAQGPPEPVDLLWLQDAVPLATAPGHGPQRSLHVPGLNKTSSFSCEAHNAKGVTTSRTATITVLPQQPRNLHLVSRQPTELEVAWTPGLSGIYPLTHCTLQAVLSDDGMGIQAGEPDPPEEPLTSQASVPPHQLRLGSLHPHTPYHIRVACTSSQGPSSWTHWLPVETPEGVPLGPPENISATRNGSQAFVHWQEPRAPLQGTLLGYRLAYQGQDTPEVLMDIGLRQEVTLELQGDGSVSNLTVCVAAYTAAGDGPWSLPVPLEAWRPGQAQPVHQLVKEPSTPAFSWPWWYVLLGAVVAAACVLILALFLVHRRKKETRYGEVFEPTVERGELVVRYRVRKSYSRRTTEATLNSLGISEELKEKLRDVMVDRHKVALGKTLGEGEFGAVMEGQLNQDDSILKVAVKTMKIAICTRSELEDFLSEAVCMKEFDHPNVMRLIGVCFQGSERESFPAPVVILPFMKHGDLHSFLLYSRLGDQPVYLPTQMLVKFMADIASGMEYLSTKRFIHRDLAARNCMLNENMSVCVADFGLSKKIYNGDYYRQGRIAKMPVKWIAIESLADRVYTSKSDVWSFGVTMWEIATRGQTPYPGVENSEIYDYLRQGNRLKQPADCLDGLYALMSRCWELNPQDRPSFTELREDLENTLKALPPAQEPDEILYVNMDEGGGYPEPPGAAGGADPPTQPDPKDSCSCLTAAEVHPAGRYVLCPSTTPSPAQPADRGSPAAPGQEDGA
Experimental: as §1

CDK5/P25 = target: T17, CDK5/P25 (Homo sapiens, UniProt Q00535); experiment: ProfilerPro Kinase Selectivity, CDK5/P25; conditions: tested at 10 uM, read-out: percent inhibition of the kinase activity
T17 construct: purchased Caliper LifeSciences
Experimental: as §1

EPHB4 = target: T18, EPHB4 (Homo sapiens, UniProt P54760); experiment: ProfilerPro Kinase Selectivity, EPHB4; conditions: tested at 10 uM, read-out: percent inhibition of the kinase activity
T18 construct: purchased Caliper LifeSciences
T18 sequence (P54760 16-987, species assumed): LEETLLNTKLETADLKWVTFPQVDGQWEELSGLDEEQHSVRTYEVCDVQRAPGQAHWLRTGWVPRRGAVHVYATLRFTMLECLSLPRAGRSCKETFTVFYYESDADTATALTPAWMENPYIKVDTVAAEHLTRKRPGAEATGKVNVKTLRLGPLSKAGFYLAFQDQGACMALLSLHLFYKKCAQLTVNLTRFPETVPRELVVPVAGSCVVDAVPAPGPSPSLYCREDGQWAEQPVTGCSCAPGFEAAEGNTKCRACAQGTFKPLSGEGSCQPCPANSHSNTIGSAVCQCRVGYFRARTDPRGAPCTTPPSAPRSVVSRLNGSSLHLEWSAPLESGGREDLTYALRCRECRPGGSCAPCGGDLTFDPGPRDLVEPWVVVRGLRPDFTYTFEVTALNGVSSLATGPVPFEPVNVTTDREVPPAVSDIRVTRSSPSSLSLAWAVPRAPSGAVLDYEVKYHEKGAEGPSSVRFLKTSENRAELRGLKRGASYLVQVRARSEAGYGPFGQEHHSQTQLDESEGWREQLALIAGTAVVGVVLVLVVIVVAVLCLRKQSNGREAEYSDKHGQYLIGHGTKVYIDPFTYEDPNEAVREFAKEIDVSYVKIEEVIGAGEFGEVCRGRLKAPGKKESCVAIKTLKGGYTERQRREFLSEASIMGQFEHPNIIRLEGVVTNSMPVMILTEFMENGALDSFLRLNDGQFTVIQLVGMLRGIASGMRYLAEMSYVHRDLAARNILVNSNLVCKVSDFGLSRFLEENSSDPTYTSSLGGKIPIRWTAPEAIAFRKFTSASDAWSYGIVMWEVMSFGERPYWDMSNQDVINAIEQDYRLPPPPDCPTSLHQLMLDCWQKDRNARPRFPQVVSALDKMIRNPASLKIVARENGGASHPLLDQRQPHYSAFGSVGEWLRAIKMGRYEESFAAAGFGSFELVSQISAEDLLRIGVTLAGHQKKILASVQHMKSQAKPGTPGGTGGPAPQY
Experimental: as §1

ALK = target: T19, ALK (Homo sapiens, UniProt Q9UM73); experiment: ProfilerPro Kinase Selectivity, ALK; conditions: tested at 10 uM, read-out: percent inhibition of the kinase activity
T19 construct: purchased Caliper LifeSciences
Experimental: as §1

PRKCB2 = target: T20, PRKCB2 (Homo sapiens, UniProt P05771); experiment: ProfilerPro Kinase Selectivity, PRKCB2; conditions: tested at 10 uM, read-out: percent inhibition of the kinase activity
T20 construct: purchased Caliper LifeSciences
Experimental: as §1

CAMK2A = target: T21, CAMK2A (Homo sapiens, UniProt Q9UQM7); experiment: ProfilerPro Kinase Selectivity, CAMK2A; conditions: tested at 10 uM, read-out: percent inhibition of the kinase activity
T21 construct: purchased Caliper LifeSciences
Experimental: as §1

BRSK2 = target: T22, BRSK2 (Homo sapiens, UniProt Q8IWQ3); experiment: ProfilerPro Kinase Selectivity, BRSK2; conditions: tested at 10 uM, read-out: percent inhibition of the kinase activity
T22 construct: purchased Caliper LifeSciences
Experimental: as §1

TSSK2 = target: T23, TSSK2 (Homo sapiens, UniProt Q96PF2); experiment: ProfilerPro Kinase Selectivity, TSSK2; conditions: tested at 10 uM, read-out: percent inhibition of the kinase activity
T23 construct: purchased Caliper LifeSciences
Experimental: as §1

IRAK4 = target: T24, IRAK4 (Homo sapiens, UniProt Q9NWZ3); experiment: ProfilerPro Kinase Selectivity, IRAK4; conditions: tested at 10 uM, read-out: percent inhibition of the kinase activity
T24 construct: purchased Caliper LifeSciences
T24 sequence (Q9NWZ3 whole entry, species assumed): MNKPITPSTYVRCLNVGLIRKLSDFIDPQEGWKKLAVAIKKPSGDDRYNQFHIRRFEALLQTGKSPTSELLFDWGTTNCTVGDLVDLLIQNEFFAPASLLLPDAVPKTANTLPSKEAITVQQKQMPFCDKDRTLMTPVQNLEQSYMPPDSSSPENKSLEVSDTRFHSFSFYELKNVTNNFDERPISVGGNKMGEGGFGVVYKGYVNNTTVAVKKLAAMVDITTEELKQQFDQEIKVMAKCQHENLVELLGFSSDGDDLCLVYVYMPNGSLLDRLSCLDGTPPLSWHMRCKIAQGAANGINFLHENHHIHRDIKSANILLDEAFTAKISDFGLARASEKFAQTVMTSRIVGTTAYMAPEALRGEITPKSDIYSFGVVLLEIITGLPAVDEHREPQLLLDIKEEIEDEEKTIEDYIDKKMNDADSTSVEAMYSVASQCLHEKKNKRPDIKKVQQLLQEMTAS
Experimental: as §1

PKACA = target: T25, PKACA (Homo sapiens, UniProt P17612); experiment: ProfilerPro Kinase Selectivity, PKACA; conditions: tested at 10 uM, read-out: percent inhibition of the kinase activity
T25 construct: purchased Caliper LifeSciences
Experimental: as §1

FER = target: T26, FER (Homo sapiens, UniProt P16591); experiment: ProfilerPro Kinase Selectivity, FER; conditions: tested at 10 uM, read-out: percent inhibition of the kinase activity
T26 construct: purchased Caliper LifeSciences
Experimental: as §1

ABL1 Y253F = target: T27, ABL1 Y253F (Homo sapiens, UniProt P00519, Y253F); experiment: ProfilerPro Kinase Selectivity, ABL1 Y253F; conditions: tested at 10 uM, read-out: percent inhibition of the kinase activity
T27 construct: purchased Caliper LifeSciences
Experimental: as §1

RET = target: T28, RET (Homo sapiens, UniProt P07949); experiment: ProfilerPro Kinase Selectivity, RET; conditions: tested at 10 uM, read-out: percent inhibition of the kinase activity
T28 construct: purchased Caliper LifeSciences
Experimental: as §1

AKT3 = target: T29, AKT3 (Homo sapiens, UniProt Q9Y243); experiment: ProfilerPro Kinase Selectivity, AKT3; conditions: tested at 10 uM, read-out: percent inhibition of the kinase activity
T29 construct: purchased Caliper LifeSciences
Experimental: as §1

`CSc1sc(-c2cc[nH]n2)c2c1C(=O)CCC2` [Example 1, 3-(Methylsulfanyl)-1-(1H-pyrazol-3-yl)-6,7-dihydro-2-benzothiophen-4(5H)-one] was tested, and the inhibition at 10 µM (FLT3) was 11.4%, the inhibition at 10 µM (PRKX) was -0.6% and the inhibition at 10 µM (FGFR2) was 4.9%. It also gave an inhibition at 10 µM (MET M1250T) of 5.1%, an IC50 [1] of 190 nM and an inhibition at 10 µM (PKCI) of -14%. The inhibition at 10 µM (PRKCE) was -2.7%, the inhibition at 10 µM (AMPKA1) was 16.4% and the inhibition at 10 µM (LYN) was 10.2%. The inhibition at 10 µM (CAMK2G) was 3.1%, the inhibition at 10 µM (RET Y791F) was 37.6% and the inhibition at 10 µM (PDGFRA D842V) was 33.9%. The inhibition at 10 µM (RSK2) was 5.5%, the inhibition at 10 µM (PIM1) was 26.3% and the inhibition at 10 µM (FGFR3 K650E) was 3.7%. For the same compound, the inhibition at 10 µM (AXL) was 13.5%, the inhibition at 10 µM (CDK5/P25) was 9.5% and the inhibition at 10 µM (EPHB4) was 0.6%. The inhibition at 10 µM (ALK) was 23.8%, the inhibition at 10 µM (PRKCB2) was -7.4% and the inhibition at 10 µM (CAMK2A) was -4.8%. It also gave an inhibition at 10 µM (BRSK2) of -1.7%, an inhibition at 10 µM (TSSK2) of 20.1% and an inhibition at 10 µM (IRAK4) of 31.1%. For the same compound, the inhibition at 10 µM (PKACA) was -6%, the inhibition at 10 µM (FER) was 11.6% and the inhibition at 10 µM (ABL1 Y253F) was 2.5%. For the same compound, the inhibition at 10 µM (RET) was 24.4% and the inhibition at 10 µM (AKT3) was -2.2%.

Work on `CC1(C)CC(=O)c2c(SC3CCCC3)sc(-c3cc[nH]n3)c2C1` [Example 7, 3-(Cyclopentylsulfanyl)-6,6-dimethyl-1-(1H-pyrazol-3-yl)-6,7-dihydro-2-benzothiophen-4(5H)-one] yielded an inhibition at 10 µM (FLT3) of 4.6%, an inhibition at 10 µM (PRKX) of -6.6% and an inhibition at 10 µM (FGFR2) of 2.6%. For the same compound, the inhibition at 10 µM (MET M1250T) was -0.3%, the IC50 [1] was 93 nM and the inhibition at 10 µM (PKCI) was -8.9%. For the same compound, the inhibition at 10 µM (PRKCE) was 3.9%, the inhibition at 10 µM (AMPKA1) was -0.5% and the inhibition at 10 µM (LYN) was 4%. It also gave an inhibition at 10 µM (CAMK2G) of 4.4%, an inhibition at 10 µM (RET Y791F) of 11.1% and an inhibition at 10 µM (PDGFRA D842V) of 3.7%. For the same compound, the inhibition at 10 µM (RSK2) was 3.5%, the inhibition at 10 µM (PIM1) was -16.3% and the inhibition at 10 µM (FGFR3 K650E) was -4.2%. The inhibition at 10 µM (AXL) was 12.3%, the inhibition at 10 µM (CDK5/P25) was -11.7% and the inhibition at 10 µM (EPHB4) was 0.1%. It also gave an inhibition at 10 µM (ALK) of 44.7%, an inhibition at 10 µM (PRKCB2) of 6.4% and an inhibition at 10 µM (CAMK2A) of 1.7%. The inhibition at 10 µM (BRSK2) was -11.1%, the inhibition at 10 µM (TSSK2) was -2.3% and the inhibition at 10 µM (IRAK4) was 3.7%. For the same compound, the inhibition at 10 µM (PKACA) was -5.4%, the inhibition at 10 µM (FER) was -0.2% and the inhibition at 10 µM (ABL1 Y253F) was 10.6%. It also gave an inhibition at 10 µM (RET) of 20.7% and an inhibition at 10 µM (AKT3) of -2.7%.
